We go through two compounds from patent publication US20030144148A1, “Method for plant-protection treatment by leaf absorption, using a combination between an active ingredient and a modified oil and novel combination for using said method” (SOCIETE D'EXPLOITATION DE PRODUITS POUR LES INDUSTRIES …, priority 1998, published 2003).

Molecules are shown by their SMILES.

The subject of data set [1] is barley (Hordeum vulgare) leaves. Put plainly: Leaf penetration of carbon-14 labeled phenmedipham, alone or in combination with modified oils. The data set is classed as in vivo. Conditions: percentage of phenmedipham penetrated into barley leaf, 72 hours after application in acetone. Set-up: dose or concentration left out as unconfirmed. Here is the method: (§1) Ten drops are applied to the adaxial surface of the first leaf. After 0, 4, 6, 24 or 72 hours, the product which has not penetrated is washed with 0.5 ml of acetone and the radioactivity measured by liquid scintillation. The radioactivity present in the treated leaf in the rest of the plant is determined in the carbon dioxide obtained after burning the tissue.

Data set [2] has the same test system. Put plainly: Leaf penetration of 2,4-D, alone or in combination with modified oils. The data set is classed as in vivo. The conditions noted are these: percentage of 2,4-D penetrated into barley leaf. Here is the method:
as §1
The penetration into barley (Hordeum vulgare) leaves, of 2,4-D or (2,4-dichlorophenoxy) acetic acid, which is a herbicide with a highly dissociated carboxylic acid function, alone or in combination with modified oils, was compared according to the procedure described in the preceding paragraph.

Take `COC(=O)Nc1cccc(OC(=O)Nc2cccc(C)c2)c1` [PH[…], 3-[(methoxycarbonyl)amino] phenyl (3-methylphenyl)-carbamate]: in data set [1], the “LEAF PENETRATION AT: 72 HOURS” value is given as less than 10%.
Regarding `O=C(O)COc1ccc(Cl)cc1Cl` [2,4-D ALONE, (2,4-dichlorophenoxy) acetic acid], the “LEAF PENETRATION AT: 24 HOURS” value in data set [2] (24 hours after application) was found to be 10%. In data set [2] (72 hours after application), the “LEAF PENETRATION AT: 72 HOURS” value came out at 15%.
